Where a name gives a salt, the structure may show the parent alone.
How the values were obtained:
Type in all cases: physicochemical
[1] = Hygroscopicity by DVS at 25° C.
Procedure: DVS was measured via a SMS (Surface Measurement Systems) DVS Intrinsic. The relative humidity at 25° C. were calibrated against deliquescence point of LiCl, Mg(NO3)2 and KCl.

[2] = Kinetic solubility in water and bio-relevant media (SGF, FaSSIF, FeSSIF) at 37° C.; conditions: for S: Solubility / FC: Form change: 37° C.; for S: Solubility: calculated by freeform; for FC: Form change: residual solids by XRPD
Procedure: Add 4 mL of medium (H2O, SGF, FaSSIF and FeSSIF). • Rolled at 37° C. (˜25 rpm). Sampling at 1, 2, 4 and 24 hrs. • At each time-point, sampled 0.8 mL of solution or suspension into a centrifuge tube prior to centrifugation (12000 rpm, 37° C., 5 min) and filtration through 0.45 μm PTFE membrane. • Tested pH and concentration for the filtrate. Analyze residual solids by XRPD.
0.1 g of NaCl and 0.05 g of Triton X-100 were weighed into a 50-mL volumetric flask. Purified water was added to dissolve the solid. 67.5 μL HCl (38%, 12M) was added after the solid was dissolved completely. pH was then adjusted to 1.8 using HCl (1 M) or NaOH (1 M). Purified water was added to the volume.
(§1) 0.17 g of anhydrous NaH2PO4, 0.021 g of NaOH and 0.31 g of NaCl were weighed into a 50-mL volumetric flask. ˜48 mL purified water was added to dissolve the solid. pH was adjusted to 6.5 using 1M HCl or 1M NaOH. Purified water was then added to the volume. 0.11 g of SIF powder was added into the volumetric flask.
as §1, with “0.41 mL” for “0.17 g”, “acetic acid, 0.20” for “anhydrous NaH2PO4, 0.021”, “0.59” for “0.31”, “5.0” for “6.5”, “0.56” for “0.11”

[3] = Solid state stability at 25° C./60% RH and 40° C./75% RH for 1 week; conditions: for HPLC peak Area, RRT 1.00: main peak
Procedure: Each sample was added into a glass vial, sealed by parafilm with several holes, and kept under tested conditions. After one week, samples were taken for XRPD and HPLC purity test.

N#Cc1ccc(COc2cccc(C3CCN(Cc4nc5ccc(C(=O)O)cc5n4Cc4cncs4)CC3)n2)c(F)c1 [Potassium salt Type A]
water uptake (DVS) ([1]; 25° C./80% RH): 0.62%
hygroscopicity ([1]; DVS, 25° C.): slightly hygroscopic
Water uptake at 25° C./80% RH ([1]; DVS, 25° C./80% RH): 0.62 wt %
For change after DVS ([1]; XRPD after DVS test): No
form change after DVS test (XRPD) ([1]; after DVS test): no form change
S: Solubility ([2]; FaSSIF, 1 hr): 24 µg/mL
FC: Form change ([2]; FaSSIF, 1 hr): No
S: Solubility ([2]; FaSSIF, 2 hrs): 21 µg/mL
FC: Form change ([2]; FaSSIF, 2 hrs): No
S: Solubility ([2]; FaSSIF, 4 hrs): 22 µg/mL
FC: Form change ([2]; FaSSIF, 4 hrs): No
S: Solubility ([2]; FaSSIF, 24 hrs): 29 µg/mL
FC: Form change ([2]; FaSSIF, 24 hrs): Yes
S: Solubility ([2]; FeSSIF, 1 hr): 38 µg/mL
FC: Form change ([2]; FeSSIF, 1 hr): No
S: Solubility ([2]; FeSSIF, 2 hrs): 35 µg/mL
FC: Form change ([2]; FeSSIF, 2 hrs): No
S: Solubility ([2]; FeSSIF, 4 hrs): 34 µg/mL
FC: Form change ([2]; FeSSIF, 4 hrs): No
S: Solubility ([2]; FeSSIF, 24 hrs): 21 µg/mL
FC: Form change ([2]; FeSSIF, 24 hrs): Yes
S: Solubility ([2]; H2O, 1 hr): 920 µg/mL
FC: Form change ([2]; H2O, 1 hr): No
S: Solubility ([2]; H2O, 2 hrs): 1700 µg/mL
FC: Form change ([2]; H2O, 2 hrs): Yes
S: Solubility ([2]; H2O, 4 hrs): 3800 µg/mL
FC: Form change ([2]; H2O, 4 hrs): Yes
S: Solubility ([2]; H2O, 24 hrs): 4900 µg/mL
FC: Form change ([2]; H2O, 24 hrs): Yes
S: Solubility ([2]; SGF, 1 hr): 280 µg/mL
FC: Form change ([2]; SGF, 1 hr): Yes
S: Solubility ([2]; SGF, 2 hrs): 69 µg/mL
FC: Form change ([2]; SGF, 2 hrs): Yes
S: Solubility ([2]; SGF, 4 hrs): 39 µg/mL
FC: Form change ([2]; SGF, 4 hrs): Yes
S: Solubility ([2]; SGF, 24 hrs): 50 µg/mL
FC: Form change ([2]; SGF, 24 hrs): Yes
form change of residual solids (XRPD) after solubility test ([2]; all the media (H2O, SGF, FaSSIF, FeSSIF), after 24 hrs): form change was observed
HPLC peak Area, RRT 0.70 ([3]; 25° C./60% RH, 1 week): 0.06%
HPLC peak Area, RRT 0.73 ([3]; 25° C./60% RH, 1 week): 0.15%
HPLC peak Area, RRT 0.83 ([3]; 25° C./60% RH, 1 week): 1.80%
HPLC peak Area, RRT 0.90 ([3]; 25° C./60% RH, 1 week): 0.09%
HPLC peak Area, RRT 0.99 ([3]; 25° C./60% RH, 1 week): 0.06%
HPLC peak Area, RRT 1.05 ([3]; 25° C./60% RH, 1 week): 0.27%
HPLC peak Area, RRT 1.10 ([3]; 25° C./60% RH, 1 week): 0.67%
HPLC peak Area, RRT 1.11 ([3]; 25° C./60% RH, 1 week): 0.05%
HPLC peak Area, RRT 1.12 ([3]; 25° C./60% RH, 1 week): 0.06%
HPLC peak Area, RRT 1.15 ([3]; 25° C./60% RH, 1 week): 0.21%
HPLC peak Area, RRT 1.34 ([3]; 25° C./60% RH, 1 week): 0.10%
HPLC peak Area, RRT 1.00 ([3]; 25° C./60% RH, 1 week): 96.47%
Form change ([3]; 25° C./60% RH/Open/1 week): No
Purity ([3]; 25° C./60% RH/Open/1 week): 96.47 Area %
solid-state stability: form change and purity decrease ([3]; 25° C./60% RH/open and 40° C./75% RH/open, 1 week): no form change or significant purity decrease
HPLC peak Area, RRT 0.70 ([3]; 40° C./75% RH, 1 week): 0.05%
HPLC peak Area, RRT 0.73 ([3]; 40° C./75% RH, 1 week): 0.14%
HPLC peak Area, RRT 0.83 ([3]; 40° C./75% RH, 1 week): 1.78%
HPLC peak Area, RRT 0.90 ([3]; 40° C./75% RH, 1 week): 0.09%
HPLC peak Area, RRT 0.99 ([3]; 40° C./75% RH, 1 week): <0.05%
HPLC peak Area, RRT 1.05 ([3]; 40° C./75% RH, 1 week): 0.28%
HPLC peak Area, RRT 1.10 ([3]; 40° C./75% RH, 1 week): 0.66%
HPLC peak Area, RRT 1.11 ([3]; 40° C./75% RH, 1 week): 0.06%
HPLC peak Area, RRT 1.12 ([3]; 40° C./75% RH, 1 week): 0.06%
HPLC peak Area, RRT 1.15 ([3]; 40° C./75% RH, 1 week): 0.22%
HPLC peak Area, RRT 1.34 ([3]; 40° C./75% RH, 1 week): 0.07%
HPLC peak Area, RRT 1.00 ([3]; 40° C./75% RH, 1 week): 96.58%
Form change ([3]; 40° C./75% RH/Open/1 week): No
Purity ([3]; 40° C./75% RH/Open/1 week): 96.58 Area %
HPLC peak Area, RRT 0.70 ([3]; Initial): 0.05%
HPLC peak Area, RRT 0.73 ([3]; Initial): 0.16%
HPLC peak Area, RRT 0.83 ([3]; Initial): 1.84%
HPLC peak Area, RRT 0.90 ([3]; Initial): 0.09%
HPLC peak Area, RRT 0.99 ([3]; Initial): 0.05%
HPLC peak Area, RRT 1.05 ([3]; Initial): 0.27%
HPLC peak Area, RRT 1.10 ([3]; Initial): 0.70%
HPLC peak Area, RRT 1.11 ([3]; Initial): 0.05%
HPLC peak Area, RRT 1.12 ([3]; Initial): 0.06%
HPLC peak Area, RRT 1.15 ([3]; Initial): 0.22%
HPLC peak Area, RRT 1.34 ([3]; Initial): 0.10%
Purity ([3]; Initial): 96.41 Area %
HPLC peak Area, RRT 1.00 ([3]; Initial): 96.41%

Reference: US20240360122A1, “POLYMORPHIC FORMS AND SALTS OF A GLP-1R AGONIST” (Terns (Suzhou) Biotechnology Co., Ltd., priority 2023, published 2024)
